What all share (assay type): functional
Experiment [1] concerns Staphylococcus aureus. The experiment in a line: Antibacterial activity against Staphylococcus aureus ATCC 29213 by broth microdilution method. A general note: In broth dilution the organism is exposed to a series of concentrations in liquid medium.
In experiment [2] the test system is Escherichia coli. In words: Antibacterial activity against Escherichia coli ATCC 25922 by broth microdilution method.
The subject of experiment [3] is Pseudomonas aeruginosa. The experiment in a line: Antibacterial activity against Pseudomonas aeruginosa B 63230 by broth microdilution method.

In brackets after ≈: the same amount, converted by molar mass.

The term MIC denotes the smallest concentration in the dilution series that meets the test's criterion for growth inhibition. Lower therefore signals greater potency. On to `CN(C)[C@@H]1C(O)=C(C(N)=O)C(=O)[C@@]2(O)C(O)=C3C(=O)c4c(O)cccc4[C@@](C)(O)[C@H]3C[C@@H]12` [TETRACYCLINE], for which the results for the MIC in experiment [1], in experiment [2] and in experiment [3] were 0.25 µg/mL (≈ 0.563 µM), 0.5 µg/mL (≈ 1.13 µM) and 32 µg/mL (≈ 72 µM), respectively.
